{
  "source": "the supplement of paper PMC10307832",
  "assay_in_all_cases": "relative viability (nuclei count vs DMSO), 5 days (fraction); higher = more cells survive",
  "key": {"[1]": {"compound": "C1CC(C2=C(C1)C3=C(N2)C=CC(=C3)Cl)C(=O)N [Selisistat] + O=C(CCCCCCC(=O)Nc1ccccc1)NO [Vorinostat] (partner 1 µM)", "in_short": "(§1)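 Medians of duplicate plates are given as relative viability. That measure is the nuclei count in treated wells divided by the count in vehicle wells. Counts were taken on 4× images of lung cancer cell lines in 1536-well plates, 5 days after pin-tool dosing the day after seeding with one drug alone or a fixed anchor-drug dose plus five library-drug doses (not always all listed) in √10 steps.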"}, "[2]": {"compound": "C1CC(C2=C(C1)C3=C(N2)C=CC(=C3)Cl)C(=O)N [Selisistat] + CC(C)C[C@H](NC(=O)[C@H](Cc1ccccc1)NC(=O)c1cnccn1)B(O)O [Bortezomib] (partner 0.002 µM)", "in_short": "as §1"}, "[3]": {"compound": "C1CC(C2=C(C1)C3=C(N2)C=CC(=C3)Cl)C(=O)N [Selisistat] + CCNC(=O)c1noc(-c2cc(C(C)C)c(O)cc2O)c1-c1ccc(CN2CCOCC2)cc1 [Luminespib] (partner 0.01 µM)", "in_short": "as §1"}, "[4]": {"compound": "C1CC(C2=C(C1)C3=C(N2)C=CC(=C3)Cl)C(=O)N [Selisistat] + C[C@@H](Oc1cc(-c2cnn(C3CCNCC3)c2)cnc1N)c1c(Cl)ccc(F)c1Cl [Crizotinib] (partner 1 µM)", "in_short": "as §1"}},
  "data": [
    {"cell line": "UMC-11", "values": [
      {"measurement": "relative viability", "setting": "[1]; first compound 0.4 µM", "value": 0.456},
      {"measurement": "relative viability", "setting": "[1]; first compound 1.265 µM", "value": 0.477},
      {"measurement": "relative viability", "setting": "[1]; first compound 4 µM", "value": 0.531},
      {"measurement": "relative viability", "setting": "[1]; first compound 12.65 µM", "value": 0.504},
      {"measurement": "relative viability", "setting": "[1]; first compound 40 µM", "value": 0.593},
      {"measurement": "relative viability", "setting": "[2]; first compound 0.4 µM", "value": 0.494},
      {"measurement": "relative viability", "setting": "[2]; first compound 1.265 µM", "value": 0.71},
      {"measurement": "relative viability", "setting": "[2]; first compound 4 µM", "value": 0.738},
      {"measurement": "relative viability", "setting": "[2]; first compound 12.65 µM", "value": 0.671},
      {"measurement": "relative viability", "setting": "[2]; first compound 40 µM", "value": 0.626},
      {"measurement": "relative viability", "setting": "[3]; first compound 0.4 µM", "value": 1.03},
      {"measurement": "relative viability", "setting": "[3]; first compound 1.265 µM", "value": 0.931},
      {"measurement": "relative viability", "setting": "[3]; first compound 4 µM", "value": 0.896},
      {"measurement": "relative viability", "setting": "[3]; first compound 12.65 µM", "value": 1.09},
      {"measurement": "relative viability", "setting": "[3]; first compound 40 µM", "value": 1},
      {"measurement": "relative viability", "setting": "[4]; first compound 0.4 µM", "value": 0.812},
      {"measurement": "relative viability", "setting": "[4]; first compound 1.265 µM", "value": 0.653},
      {"measurement": "relative viability", "setting": "[4]; first compound 4 µM", "value": 0.683},
      {"measurement": "relative viability", "setting": "[4]; first compound 12.65 µM", "value": 0.69},
      {"measurement": "relative viability", "setting": "[4]; first compound 40 µM", "value": 0.577}
    ]}
  ]
}
